Here are results for 1 molecule from PMC12460146, “Impact of metabolic enzyme activity variability on dabrafenib disposition” (Frontiers in Pharmacology, 2025).

“Also recorded” adds a separate entry of the source.

For data set [1] the following is noted: cited from earlier work.
Data set [2] deals with T1, CYP3A4.20 (Homo sapiens, UniProt P08684).
T1 construct: made in house; host or cells: insect cells (baculovirus, pFastBac-Dual)
As to the kind of experiment: In vitro enzyme kinetics assay using CYP3A4 baculosomes: CYP3A4.20. It counts as in vitro ADME. On the procedure:
(§1) Recombinant CYP3A4 and CYPb5 proteins were prepared according to our previously established protocol ([Fang et al., 2017]). Briefly, dual expression vectors (pFastBac-Dual) were used to construct CYP3A4-CYPOR and CYPb5-CYPOR expression plasmids. Subsequently, the corresponding baculosomes were harvested by ultracentrifugation using the baculovirus-insect cell expression system, and the target proteins were confirmed. Protein expression levels for each type were qualitatively and quantitatively assessed by Western blotting and BCA assay, respectively.
(§2) The 200 µL incubation system comprised 0.1 M Tris-HCl, 5 µg CYP3A4.1 or other CYP3A4 variants, 5 µg CYPb5, 1 mM NADPH, and dabrafenib. A dabrafenib concentration of 10 µM was used to evaluate variant specific metabolic activity. Michaelis-Menten kinetics were assessed using dabrafenib concentrations of 5, 10, 20, 50, 100, and 250 µM. Subsequent processing steps followed the procedures outlined in Section 2.3.

Data set [3] concerns the target T2, CYP3A4.28 (Homo sapiens, UniProt P08684, L22V).
T2 construct: made in house; host or cells: insect cells (baculovirus, pFastBac-Dual)
As to the kind of experiment: In vitro enzyme kinetics assay using CYP3A4 baculosomes: CYP3A4.28. It counts as in vitro ADME. On the procedure:
as §1, §2

Data set [4] has as its target T3, CYP3A4.8 (Homo sapiens, UniProt P08684, R130Q).
T3 construct: made in house; host or cells: insect cells (baculovirus, pFastBac-Dual)
In words: In vitro enzyme kinetics assay using CYP3A4 baculosomes: CYP3A4.8. Format: in vitro ADME. The protocol:
as §1, §2

Data set [5] addresses T4, CYP3A4.1 (Homo sapiens, UniProt P08684).
T4 construct: made in house; host or cells: insect cells (baculovirus, pFastBac-Dual)
As to the kind of experiment: In vitro enzyme kinetics assay using CYP3A4 baculosomes: CYP3A4.1. Conditions: dabrafenib 5–250 µM. It counts as in vitro ADME. On the procedure: as §1, §2

Data set [6] concerns rat liver microsomes (RLM). In words: Michaelis-Menten kinetics of dabrafenib metabolism (hydroxy-dabrafenib formation) in RLM. Conditions: RLM 0.5 mg/mL, dabrafenib 0.5–200 µM. It counts as in vitro ADME. On the procedure: RLM was obtained according to established methods ([Wang et al., 2015]). Briefly, rat livers were weighed and homogenized in ice-cold phosphate buffer containing […] sucrose. The homogenate was centrifuged at 17,000 × g for 15 min at 4 °C. The supernatant was transferred to new tubes and recentrifuged at 17,000 × g for 15 min. The resulting supernatant was then ultracentrifuged at 100,000 × g for 60 min at 4 °C. The microsomal pellet was resuspended in ice-cold 0.01 mmol/L PBS (pH = 7.2–7.4). Protein concentration was determined using a Bradford assay kit (Thermo Scientific, Waltham, MA, United States).
(§3) The 200 µL incubation system contained 0.1 M Tris-HCl (pH = 7.6), 0.5 mg/mL RLM or HLM, 1 mM NADPH, and dabrafenib. […] Carbamazepine (100 ng/mL) was added as the IS. […] Hydroxy-dabrafenib concentrations were quantified via UPLC-MS/MS.
(§4) For kinetic studies, Michaelis-Menten curves were obtained using dabrafenib concentrations (0.5–200 µM) in RLM and HLM. Samples were processed as above. Curves were plotted (dabrafenib concentration vs. V) and fitted nonlinearly (Prism 9, GraphPad).
The concentrations of dabrafenib and hydroxy-dabrafenib were quantified by UPLC-MS/MS. […] Quantification transitions were m/z 520.10 → 307.20 for dabrafenib, m/z 536.20 → 323.10 for hydroxy-dabrafenib, and m/z 237.10 → 194.10 for IS.

Data set [7] concerns human liver microsomes (HLM). As to the kind of experiment: Michaelis-Menten kinetics of dabrafenib metabolism (hydroxy-dabrafenib formation) in HLM. Conditions: HLM 0.5 mg/mL, dabrafenib 0.5–200 µM. Format: in vitro ADME. The protocol:
as §3, §4
The concentrations of dabrafenib and hydroxy-dabrafenib were quantified by UPLC-MS/MS. Chromatographic separation was performed on a Waters Acquity UPLC BEH C18 column (2.1 mm × 50 mm, 1.7 µm particle size) maintained at 40 °C. The mobile phase consisted of 0.1% aqueous formic acid (A) and acetonitrile (B), delivered at 0.3 mL/min with the following gradient program: 90% A (0–0.15 min), linear transition to 10% A (0.15–0.8 min), 10% A (0.8–1.5 min), and return to 90% A (1.5–2 min). Total run time was 2 min. Detection employed a Waters Xevo TQS triple quadrupole mass spectrometer (Milford, MA, United States) operated in positive-ion multiple reaction monitoring mode. Quantification transitions were m/z 520.10 → 307.20 for dabrafenib, m/z 536.20 → 323.10 for hydroxy-dabrafenib, and m/z 237.10 → 194.10 for IS.

T1 sequence (P08684 with tags, fused parts or gaps limits assumed): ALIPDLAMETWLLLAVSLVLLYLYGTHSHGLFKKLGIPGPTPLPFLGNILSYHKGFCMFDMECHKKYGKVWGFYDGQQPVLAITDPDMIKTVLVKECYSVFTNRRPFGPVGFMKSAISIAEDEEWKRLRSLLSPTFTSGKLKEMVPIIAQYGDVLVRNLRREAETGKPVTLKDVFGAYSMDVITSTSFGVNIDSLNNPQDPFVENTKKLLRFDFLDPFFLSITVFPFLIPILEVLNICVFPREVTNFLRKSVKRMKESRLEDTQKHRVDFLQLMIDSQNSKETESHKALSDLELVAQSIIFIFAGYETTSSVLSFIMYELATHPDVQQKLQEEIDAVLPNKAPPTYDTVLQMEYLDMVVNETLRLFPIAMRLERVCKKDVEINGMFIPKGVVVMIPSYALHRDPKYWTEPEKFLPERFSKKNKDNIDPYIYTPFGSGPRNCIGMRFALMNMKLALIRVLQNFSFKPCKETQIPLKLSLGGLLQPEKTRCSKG
T2 sequence (P08684 whole entry L22V): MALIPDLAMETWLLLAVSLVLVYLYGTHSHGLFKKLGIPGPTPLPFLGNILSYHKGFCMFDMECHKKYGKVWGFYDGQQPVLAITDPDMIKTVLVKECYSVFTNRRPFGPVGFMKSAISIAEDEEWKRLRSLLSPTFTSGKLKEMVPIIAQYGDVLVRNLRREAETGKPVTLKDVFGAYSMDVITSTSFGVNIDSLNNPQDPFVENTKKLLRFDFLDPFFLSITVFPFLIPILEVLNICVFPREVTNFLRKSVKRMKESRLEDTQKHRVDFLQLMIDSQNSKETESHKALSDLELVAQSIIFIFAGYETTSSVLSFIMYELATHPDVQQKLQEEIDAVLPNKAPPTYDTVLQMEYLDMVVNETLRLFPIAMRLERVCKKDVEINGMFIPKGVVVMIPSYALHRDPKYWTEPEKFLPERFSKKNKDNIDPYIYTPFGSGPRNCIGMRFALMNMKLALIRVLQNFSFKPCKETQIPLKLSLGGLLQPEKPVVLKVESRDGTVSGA
T3 sequence (P08684 whole entry R130Q): as the sequence (P08684 whole entry L22V) above, with V22L, R130Q counted along it
T4 sequence (P08684 whole entry): as the sequence (P08684 whole entry L22V) above, with V22L counted along it

As to `CC(C)(C)c1nc(-c2cccc(NS(=O)(=O)c3c(F)cccc3F)c2F)c(-c2ccnc(N)n2)s1` [Dabrafenib], the Cmax in data set [1] (single 150 mg oral dose, clinical, ref Puszkiel et al., 2019, Balakirouchenane et al., 2021) is listed as 2,160 ng/mL. The “oral bioavailability (F)” value in data set [1] (single-dose administration, ref Denton et al., 2013) is 95%. In data set [2], the “metabolic activity toward dabrafenib (in words)” value is “nearly complete loss of activity; also recorded: lack catalytic activity”. Besides, the “increase of relative clearance vs CYP3A4.1” value in data set [3] is recorded as 26.67%. Further, the Vmax in data set [3] (dabrafenib 5–250 µM) was found to be 0.362 ± 0.026 pmoL/L/min/μg CYP3A4; in data set [4] (dabrafenib 5–250 µM), 0.247 ± 0.030 pmoL/L/min/μg CYP3A4; in data set [5] it was 0.266 ± 0.007 pmoL/L/min/μg CYP3A4; in data set [6], 0.14 ± 0.01 pmol/L/min/µg; in data set [7], 0.16 ± 0.001 pmol/L/min/µg. Also, the “decrease of relative clearance vs CYP3A4.1” value in data set [4] is on record as 66.67%. The Km (usually the concentration of substrate that gives half-maximal velocity) in data set [6] is 14.6 ± 3.08 µM; in data set [7], 3.5 ± 0.56 µM.
